Test results: US6040335A, “Therapeutics for thrombocytopenia” (Suntory Limited, priority 1995, dated 2000)

What was measured:
Mouse Platelet = Mouse Platelet Increasing Action (platelet count, electrical impedance method); format: in vivo, C57BL/6 mice; conditions: every 24 hr
Procedure: The measurement of platelet increasing activity can be implemented by the method described in Ishibashi, T. et al, Blood, 74(4):1241-1244, 1989 or modifications thereof. For example, an animal for platelet measurement such as mouse (e.g. C57BL/6 mouse), rat, dog or monkey is administered intraperitoneally with a test drug as dissolved in ethanolic physiological saline or dimethyl sulfoxide (hereunder sometimes referred to as DMSO) at a suitable concentration. The frequency of administration is usually once or twice a day for 5-10 continuous days; a blood sample is taken from the orbital venous plexus several hours after the final administration and the platelet count is determined. Administration may be performed by any methods including oral, intravenous, intramuscular and subcutaneous routes. The interval of administrations, their frequency and the number of days on which the administration is made are also variable with the drug under test. Platelet count can be determined by an electrical impedance method using a multi-channel automatic platelet counter (e.g., COULTER COUNTER Model JT of Coulter Corporation).
C57BL/6 mice (male, 7-week old) were administered intraperitoneally with the following compounds of the invention in 1% DMSO physiological saline or with 1% DMSO physiological saline alone (control) at 24-hr intervals for 5, 7 or 10 continuous days. Blood samples were collected 72-hr after the final administration in the case of 5-day administration, and 4-hr after the final administration in the case of 7 or 10-day administration, and the platelet count was determined by an electrical impedance method.

C57BL/6 mice = assay: Toxicity Test (intravenous, deaths); format: in vivo; conditions: 5 mg/kg intravenous
[1] = 0.1 mg/kg i.p., 5 days, blood 72 hr after final administration
[2] = 1.0 mg/kg i.p., 5 days, blood 72 hr after final administration
[3] = 0.03 mg/kg i.p., 5 days, blood 72 hr after final administration

Row | Structure (SMILES) | Platelet count (Mean ± S.E.) (Mouse Platelet; [1]) | Platelet count (Mean ± S.E.) (Mouse Platelet; [2]) | Platelet count (Mean ± S.E.) (Mouse Platelet; [3]) | Platelet count (Mean ± S.E.) (Mouse Platelet; 0.03 mg/kg i.p., 7 days, blood 4 hr after final administration, control 1070 ± 152) | Platelet count (Mean ± S.E.) (Mouse Platelet; 0.1 mg/kg i.p., 7 days, blood 4 hr after final administration, control 1070 ± 152) | Platelet count (Mean ± S.E.) (Mouse Platelet; 0.1 mg/kg i.p., 10 days, blood 4 hr after final administration, control 985 ± 130) | Platelet count (Mean ± S.E.) (Mouse Platelet; 1.0 mg/kg i.p., 7 days, blood 4 hr after final administration, control 1070 ± 152) | Platelet count (Mean ± S.E.) (Mouse Platelet; 1.0 mg/kg i.p., 10 days, blood 4 hr after final administration, control 985 ± 130) | cases of death (C57BL/6 mice)
1 | CCC1C=CC(=O)OC1/C=C/C(O)(CC[N+](C)(C)C)C(CC(O)/C=C\C=C/C1CCCC(O)C1)OP(=O)(O)O (centres unmarked) [Example 23, 6-[3,6-Dihydroxy-10-(3-hydroxycyclohexyl)-4-(phosphonoxy)-3-(2-trimethylammoniumethyl)-1,7,9-decatrienyl]-5,6-dihydro-5-ethyl-2H-pyran-2-one] | 1545 ± 294 × 10^3 /μl | 1513 ± 425 × 10^3 /μl |  |  |  |  |  |  | 
2 | CCCCCNCCC(O)(/C=C/C1OC(=O)C=CC1CC)C(CC(O)/C=C\C=C/C1CCCC(O)C1)OP(=O)(O)O (centres unmarked) [Example 12, 6-[3,6-Dihydroxy-10-(3-hydroxycyclohexyl)-3-(2-pentylaminoethyl)-4-(phosphonoxy)-1,7,9-decatrienyl]-5,6-dihydro-5-ethyl-2H-pyran-2-one] | 1623 ± 192 × 10^3 /μl | 1338 ± 236 × 10^3 /μl | 1263 ± 99 × 10^3 /μl |  |  |  |  |  | 
3 | CCC1C=CC(=O)OC1/C=C/C(O)(CCNC(C)C)C(CC(O)/C=C\C=C/C1CCCC(O)C1)OP(=O)(O)O (centres unmarked) [Example 9, 6-[3,6-Dihydroxy-10-(3-hydroxycyclohexyl)-3-(2-isopropylaminoethyl)-4-(phosphonoxy)-1,7,9-decatrienyl]-5,6-dihydro-5-ethyl-2H-pyran-2-one] | 1818 ± 291 × 10^3 /μl | 1465 ± 244 × 10^3 /μl | 1433 ± 125 × 10^3 /μl |  |  |  |  |  | 
4 | C=CCN(CC=C)CCC(O)(/C=C/C1OC(=O)C=CC1CC)C(CC(O)/C=C\C=C/C1CCCC(O)C1)OP(=O)(O)O (centres unmarked) [Example 25, 6-[3-(2-Diallylaminoethyl)-3,6-dihydroxy-10-(3-hydroxycyclohexyl)-4-(phosphonoxy)-1,7,9-decatrienyl]-5,6-dihydro-5-ethyl-2H-pyran-2-one] | 1506 ± 209 × 10^3 /μl | 1133 ± 170 × 10^3 /μl | 1074 ± 182 × 10^3 /μl |  |  |  |  |  | 
5 | CCC1C=CC(=O)OC1/C=C/C(O)(CCN(CC)CC)C(CC(O)/C=C\C=C/C1CCCC(O)C1)OP(=O)(O)O (centres unmarked) [Example 7, 6-[3-(2-Diethylaminoethyl)-3,6-dihydroxy-10-(3-hydroxycyclohexyl)-4-(phosphonoxy)-1,7,9-decatrienyl]-5,6-dihydro-5-ethyl-2H-pyran-2-one] | 1686 ± 226 × 10^3 /μl | 1408 ± 427 × 10^3 /μl | 1373 ± 76 × 10^3 /μl |  |  |  |  |  | 
6 | CCC1C=CC(=O)OC1/C=C/C(O)(CCN(C)C)C(CC(O)/C=C\C=C/C1CCCC(O)C1)OP(=O)(O)O (centres unmarked) [Example 3, 6-[3,6-Dihydroxy-3-(2-dimethylaminoethyl)-10-(3-hydroxycyclohexyl)-4-(phosphonoxy)-1,7,9-decatrienyl]-5,6-dihydro-5-ethyl-2H-pyran-2-one] |  |  |  | 1417 ± 159 × 10^3 /μl | 1486 ± 314 × 10^3 /μl | 1280 ± 260 × 10^3 /μl | 1532 ± 137 × 10^3 /μl | 1356 ± 156 × 10^3 /μl | no cases of death
7 | CCC1C=CC(=O)OC1/C=C/C(O)(CCN(CCO)CCO)C(CC(O)/C=C\C=C/C1CCCC(O)C1)OP(=O)(O)O (centres unmarked) [Example 20, 6-[3-(2-Diethanolaminoethyl)-3,6-dihydroxy-10-(3-hydroxycyclohexyl)-4-(phosphonoxy)-1,7,9-decatrienyl]-5,6-dihydro-5-ethyl-2H-pyran-2-one] | 1325 ± 104 × 10^3 /μl | 1498 ± 192 × 10^3 /μl | 1154 ± 138 × 10^3 /μl |  |  |  |  |  | 
8 | CCC1C=CC(=O)OC1/C=C/C(O)(CCNC1CCCC1)C(CC(O)/C=C\C=C/C1CCCC(O)C1)OP(=O)(O)O (centres unmarked) [Example 13, 6-[3-(2-Cyclopentylaminoethyl)-3,6-dihydroxy-10-(3-hydroxycyclohexyl)-4-(phosphonoxy)-1,7,9-decatrienyl]-5,6-dihydro-5-ethyl-2H-pyran-2-one] | 1765 ± 291 × 10^3 /μl | 1313 ± 293 × 10^3 /μl | 1490 ± 108 × 10^3 /μl |  |  |  |  |  | 
